What was measured:
Format in all cases: in vivo
Musca domestica = assay: Test Example 2: filter paper/sucrose bait test against housefly imagoes; settings: 500 ppm test solution, 0.7 ml on filter paper with 30 mg sucrose, ten female imagoes, after 24 hours, read-out: rate of dead pests
Description: (§1) On the bottom of a polyethylene cup having a diameter of 5.5 cm, a filter paper having the same diameter was laid, and 0.7 ml of the above test solution was added dropwise on the filter paper, followed by putting 30 mg of sucrose on it uniformly as a bait. Ten female Musca domestica imagoes were set free in the polyethylene cup and covered it with a lid. After 24 hours, the number of surviving and dead Musca domestica was examined and the rate of dead pests was calculated.

Blattella germanica = assay: Test Example 3: filter paper/sucrose bait test against German cockroach imagoes; settings: Blattella germanica, 144 h; 500 ppm test solution, 0.7 ml on filter paper with 30 mg sucrose; two male imagoes; after 6 days; read-out: rate of dead pests
Description: as §1, with “Two male Blattella germanica” for “Ten female Musca domestica”, “6 days,” for “24 hours,”, “Blattella germanica” for “Musca domestica”

Culex pipiens pallens = assay: Test Example 4: mosquito larvae test in treated water; settings: 24 h, active ingredient concentration 3.5 ppm in water, twenty last-instar larvae, after one day, read-out: rate of dead pests
Description: 0.7 ml of above test solution was added to 100 ml of ion exchanged water (active ingredient concentration: 3.5 ppm). Twenty last-instar larvae of Culex pipiens pallens were set free in the solution. After one day, the number of surviving and dead Culex pipiens pallens was examined and the rate of dead pests was calculated.

Structure (SMILES) | pest or weed control at 500 ppm (Musca domestica) | pest or weed control at 500 ppm (Blattella germanica) | pest or weed control at 3.5 ppm (Culex pipiens pallens)
NC(=O)C(CCC(F)(F)C(F)(F)F)S(=O)(=O)CCC(F)(F)C(F)(F)F (stereo not drawn) [(60)] | ≥ 70% | 100% | ≥ 90%
COC(=O)C(Br)(CCC(F)(F)C(F)(F)F)S(=O)(=O)CCC(F)(F)F (stereo not drawn) [(65)] | ≥ 70% | 100% | ≥ 90%
CC(CCC(F)(F)C(F)(F)F)(SCCC(F)(F)F)C(N)=O (stereo not drawn) [(70)] | ≥ 70% | 100% | ≥ 90%
CCCNC(=O)C(C)(CCC(F)(F)C(F)(F)F)S(=O)(=O)CCC(F)(F)F (stereo not drawn) [(40)] | ≥ 70% | 100% | ≥ 90%
N#CC(CCCC(F)(F)F)S(=O)(=O)CCC(F)(F)F (stereo not drawn) [(39)] | ≥ 70% | 100% | ≥ 90%

Reference: patent US8017656B2, “Organic sulfur compounds and use thereof” (Sumitomo Chemical Company, Limited, priority 2005, dated 2011)
